Read-outs that look alike come from different tables or passages of the source.
How the values were obtained:
[1] = target: CMP-KDO synthetase (Escherichia coli, UniProt P04951); test: Inhibition of CMP-KDO synthetase activity (colorimetric phosphate); format: biochemical, gram-negative bacteria
Method: The inhibition of CMP-KDO synthetase activity was measured in reaction mixtures buffered at pH 9.5 containing: 2 mM KDO, 5 mM magnesium cytidine triphosphate, and inorganic pyrophosphatase. The pyrophosphate generated during the course of enzyme reaction was cleaved by the pyrophosphatase to inorganic orthophosphate, the level of which was measured colorimetrically. […] Potency was assessed by determining the level of inhibitor required to inhibit the enzyme reaction by 50% under the conditions of the assay described above (I50). A potent inhibitor is defined as one having an I50 of 1 mM or less.

[2] = test system: Escherichia Coli Juhl; test: Mouse protection assay, Escherichia Coli Juhl; format: in vivo; details: mice infected with lethal dose of Escherichia Coli Juhl
Method: (§1) Antibacterial activity of the compounds were tested in a mouse protection assay against Escherichia Coli Juhl, Serratia marcescens and the gram positive bacterium Staphylococcus aureus.

[3] = test system: Serratia marcescens; test: Mouse protection assay, Serratia marcescens; format: in vivo; details: mice infected with lethal dose of Serratia marcescens
Method: as §1

Chain of CMP-KDO synthetase (P04951 whole entry): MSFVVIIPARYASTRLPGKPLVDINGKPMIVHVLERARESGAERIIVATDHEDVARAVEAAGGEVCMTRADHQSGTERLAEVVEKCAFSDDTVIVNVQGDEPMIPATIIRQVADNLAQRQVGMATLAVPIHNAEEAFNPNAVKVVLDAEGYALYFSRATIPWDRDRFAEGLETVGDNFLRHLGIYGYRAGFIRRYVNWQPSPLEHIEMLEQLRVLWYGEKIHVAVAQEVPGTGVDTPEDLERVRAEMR

Row | SMILES | IC50 [1] [µM] | ED50 [2] [mg/kg] | ED50 [3] [mg/kg] | IC50 ([1]; pH 9.5, 2 mM KDO, 5 mM magnesium cytidine triphosphate, inorganic pyrophosphatase, read-out: I50) [µM]
1 | NCC(=O)NCC(=O)NC[C@@H](O)[C@H]1O[C@H](C(=O)O)C[C@@H](O)[C@H]1O [Example 3, α-C-[1,5-anhydro-7-(glycyl-glycylamino)-2,7-dideoxy-D-manno-heptopyranosyl]-carboxylate] | 230 | 6.3 | 12.5 | 
2 | CCNC[C@@H](O)[C@H]1OC(O)(C(=O)O)C[C@@H](O)[C@H]1O (stereo partly drawn) [Example 6, 8-Ethylamino-3,8-dideoxy-D-manno-2-octulosonate] | 70 |  |  | 
3 | CN(C)C[C@@H](O)[C@H]1OC(O)(C(=O)O)C[C@@H](O)[C@H]1O (stereo partly drawn) [Example 5, 8-Dimethylamino-3,8-dideoxy-D-manno-2-octulosonate] | 220 |  |  | 
4 | NC[C@@H](O)[C@H]1O[C@H](C(=O)O)C[C@@H](O)[C@H]1O [Example 2, α-C-[1,5-anhydro-7-amino-2,7-dideoxy-D-manno-heptopyranosyl]-carboxylate] | 7 | 3.1 | 6.3 | 
5 | NCC[C@@H](O)[C@H]1O[C@H](C(=O)O)C[C@@H](O)[C@H]1O [Example 7, α-C-[1,5 Anhydro-8-amino-2,7,8-trideoxy-D-mannooctopyranosyl] carboxylate] |  |  |  | 1.9
6 | NC[C@@H](O)[C@H]1OC(O)(C(=O)O)C[C@@H](O)[C@H]1O (stereo partly drawn) [Example 1, 8-Amino-3,8-dideoxy-D-manno-2-octulosonate] | 310 | 25 | 30 | 
7 | CNC[C@@H](O)[C@H]1OC(O)(C(=O)O)C[C@@H](O)[C@H]1O (stereo partly drawn) [Example 4, 8-Methylamino-3,8-dideoxy-D-manno-2-octulosonate] | 81 |  |  | 

From patent publication US4613590A, “Amino D-manno-2-octulopyranosidonate containing compounds, pharmaceutical compositions and method of use” (Abbott Laboratories, priority 1985, dated 1986)
